In patent US20100137446A1, “NAPHTHALENE COMPOUNDS, A PROCESS FOR THEIR PREPARATION AND PHARMACEUTICAL COMPOSITIONS CONTAINING THEM” (priority 2007, published 2010):

Columns and labels:
[1] = target: T1, MT2 receptor (Homo sapiens, UniProt P49286); assay: Melatonin MT2 receptor binding study; conditions: 2-[125I]-iodomelatonin radioligand
T1 sequence (P49286 1-362): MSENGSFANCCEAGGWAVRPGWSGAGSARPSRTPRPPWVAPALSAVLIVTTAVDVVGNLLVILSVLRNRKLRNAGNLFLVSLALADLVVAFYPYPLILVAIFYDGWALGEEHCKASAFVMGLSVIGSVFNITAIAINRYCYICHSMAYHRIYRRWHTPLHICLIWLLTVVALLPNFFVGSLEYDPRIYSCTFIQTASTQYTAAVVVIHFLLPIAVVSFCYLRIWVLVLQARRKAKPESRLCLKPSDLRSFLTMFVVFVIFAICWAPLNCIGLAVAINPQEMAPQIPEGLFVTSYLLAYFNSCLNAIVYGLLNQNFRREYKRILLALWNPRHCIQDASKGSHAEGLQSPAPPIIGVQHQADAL
Description: (§1) The MT1 or MT2 receptor binding experiments are carried out using 2-[^125I]-iodomelatonin as reference radioligand. The radioactivity retained is determined using a liquid scintillation counter.
(§2) Competitive binding experiments are then carried out in triplicate using the various test compounds. A range of different concentrations is tested for each compound. The results enable the binding affinities of the compounds tested (Ki) to be determined.

[2] = target: MT1 receptor (Homo sapiens, UniProt P48039); assay: Melatonin MT1 receptor binding study; conditions: 2-[125I]-iodomelatonin radioligand
Description: as §1, §2

[3] = target: T2, human 5-HT2C receptor (Homo sapiens, UniProt P28335); assay: Serotoninergic 5-HT2C receptor binding study; conditions: CHO cell membranes, [3H]-mesulergine (1 nM)
T2 construct: expressed in transfected cells
T2 sequence (P28335 33-458): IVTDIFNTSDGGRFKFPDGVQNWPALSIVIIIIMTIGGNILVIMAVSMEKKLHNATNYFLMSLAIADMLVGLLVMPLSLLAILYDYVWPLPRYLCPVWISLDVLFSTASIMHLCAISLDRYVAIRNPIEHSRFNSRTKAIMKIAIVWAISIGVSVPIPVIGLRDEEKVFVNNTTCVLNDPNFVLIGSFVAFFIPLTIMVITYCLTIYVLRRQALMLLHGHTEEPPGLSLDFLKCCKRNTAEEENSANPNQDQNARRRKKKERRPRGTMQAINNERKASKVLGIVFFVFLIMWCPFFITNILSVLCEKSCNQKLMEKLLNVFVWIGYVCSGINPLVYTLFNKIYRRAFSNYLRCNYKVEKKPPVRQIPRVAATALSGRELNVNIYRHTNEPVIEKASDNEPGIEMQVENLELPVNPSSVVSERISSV
Description: The affinity of the compounds for the human 5-HT2C receptor is evaluated on membrane preparations from CHO cells stably expressing that receptor.
Incubation is carried out in 50 mM TRIS buffer, pH 7.4, containing 10 mM MgCl2 and
0.1% BSA, in the presence of [^3H]-mesulergine (1 nM) and 25 fmol/ml of receptor. Non-specific binding is determined in the presence of 10 μM mianserin.
The reaction is stopped by the addition of 50 mM TRIS buffer, pH 7.4, followed by a filtration step and 3 successive rinses: the radioactivity bound to the membranes remaining on the filters (GF/B pretreated with 0.1% PEI) is determined by liquid scintillation counting.

MT1 receptor, sequence (P48039 whole entry): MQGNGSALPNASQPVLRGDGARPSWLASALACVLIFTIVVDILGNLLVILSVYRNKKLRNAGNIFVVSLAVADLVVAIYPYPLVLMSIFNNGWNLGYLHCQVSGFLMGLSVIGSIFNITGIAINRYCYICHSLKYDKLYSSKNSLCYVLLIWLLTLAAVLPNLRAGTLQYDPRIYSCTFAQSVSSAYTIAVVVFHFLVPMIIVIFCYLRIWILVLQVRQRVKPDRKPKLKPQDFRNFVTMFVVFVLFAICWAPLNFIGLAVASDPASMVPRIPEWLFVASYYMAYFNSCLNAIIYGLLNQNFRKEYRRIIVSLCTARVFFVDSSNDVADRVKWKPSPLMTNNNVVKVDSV

Ki [1]: 0.2 nM
Ki [2]: 0.1 nM
Ki [3]: 6000 nM
Compound: COc1ccc2cccc(C(CF)CNC(C)=O)c2c1 (stereo not drawn) [Example 5, N-[3-Fluoro-2-(7-methoxy-1-naphthyl)propyl]acetamide]
